For this experiment, the system named is Plasmodium berghei. As to the kind of experiment: Luciferase/luciferin-expressing antifolate-resistant parasites were used to infect a culture of HepG2 cells that were pre-incubated with compounds. Infected hepatocytes emit light due to the luciferase reaction. Assay results are presented as the percent inhibition of light emission compared to control. […]. It is filed as functional. Particulars: sporozoite; for IC90: read-out: LUCIFERASE INFECTION ASSAY - IC90.

The IC50 is the concentration needed to halve the response being measured. The IC90 is the point of the concentration-response curve where the effect stands at 90%. For `Cc1cccc(/C=C(\c2nc3ccccc3[nH]2)S(=O)(=O)c2ccccc2)c1`, the 90% effect concentration (IC90) is 2.31 µM. Further, the IC50 (HEPG2TOX_HILL_SLOPE 1.77, HEPG2TOX_R_SQUARED 0.525, PBLUC_HILL_SLOPE 7.51, 3.20, PBLUC_R_SQUARED 0.576, 0.706, read-out: LUCIFERASE INFECTION ASSAY - IC50) turned out to be 1.36 µM.
As for `CCCCCc1c(C(=O)OCC)[nH]c(C)c1C`, the IC90 was above 13.9 µM. Also, the IC50 (HEPG2TOX_HILL_SLOPE 1.75, HEPG2TOX_R_SQUARED 0.784, PBLUC_HILL_SLOPE 1.37, PBLUC_R_SQUARED 0.743, read-out: LUCIFERASE INFECTION ASSAY - IC50) turned out to be 5.49 µM.
As to `CC(C)[C@@H](CO)Nc1nccn2c(-c3cccc(OC(F)(F)F)c3)cnc12`, the concentration for an effect of 90% (IC90) was 6.18 µM. Besides, the concentration for half-maximal inhibition (IC50) (HEPG2TOX_HILL_SLOPE 1.77, HEPG2TOX_R_SQUARED 0.938, PBLUC_HILL_SLOPE 1.99, PBLUC_R_SQUARED 0.624, read-out: LUCIFERASE INFECTION ASSAY - IC50) was 2.05 µM.
For `FC(F)(F)Oc1cccc(-c2cnc3sc(NCCc4ccncc4)nn23)c1`, the IC90 was above 8.14 µM. In addition, the IC50 (HEPG2TOX_HILL_SLOPE 1.76, HEPG2TOX_R_SQUARED 0.88, read-out: LUCIFERASE INFECTION ASSAY - IC50) is above 8.14 µM.
As to `COc1ccc(Nc2nc(NCC3CC3)nc3cc(-c4ccccc4)sc23)cc1OC`, the IC90 was above 7.63 µM. Besides, under “HEPG2TOX_HILL_SLOPE 1.76, HEPG2TOX_R_SQUARED 0.98, PBLUC_HILL_SLOPE 10.6, PBLUC_R_SQUARED 0.159, read-out: LUCIFERASE INFECTION ASSAY - IC50”, the 50% inhibitory concentration (IC50) came to 6.32 µM.
In the case of `C=CCNC(=O)NCC(=O)c1cc(C)n(-c2ccc(C(C)C)cc2)c1C`, the IC90 came out at 3.66 µM. Further, for the setting “HEPG2TOX_HILL_SLOPE 1.75, HEPG2TOX_R_SQUARED 0.807, PBLUC_HILL_SLOPE 19, PBLUC_R_SQUARED 0.54, read-out: LUCIFERASE INFECTION ASSAY - IC50”, the half-inhibitory concentration (IC50) was determined as 3.26 µM.
As to `CC1=NN(c2ccccc2)C(=O)/C(=C\NC(=O)c2cccc([N+](=O)[O-])c2)N1`, the IC90 came out at 8.07 µM. Moreover, where the note is “HEPG2TOX_HILL_SLOPE 1.78, HEPG2TOX_R_SQUARED 0.224, PBLUC_HILL_SLOPE 3.78, PBLUC_R_SQUARED 0.384, read-out: LUCIFERASE INFECTION ASSAY - IC50”, the IC50 amounted to 4.51 µM.
In the case of `CN1C(=O)N(Cc2ccc3ccccc3c2)C(=O)C12CCN(Cc1cnn(-c3ccc(F)cc3)c1)CC2`, the IC90 was found to be 2.54 µM. Also, the IC50 (HEPG2TOX_HILL_SLOPE 1.74, HEPG2TOX_R_SQUARED 0.906, PBLUC_HILL_SLOPE 10.4, PBLUC_R_SQUARED 0.489, read-out: LUCIFERASE INFECTION ASSAY - IC50) was 2.06 µM.
As to `Cn1ccc2cc(-c3cnc4cnc(-c5ccc(N)nc5)cn34)ccc21`, the IC90 is 5.78 µM. Further, the IC50 (HEPG2TOX_HILL_SLOPE 1.74, HEPG2TOX_R_SQUARED 0.96, PBLUC_HILL_SLOPE 2.26, PBLUC_R_SQUARED 0.858, read-out: LUCIFERASE INFECTION ASSAY - IC50) turned out to be 2.18 µM.
With `Cc1nc(C(=O)NNC(=O)c2ccc(C(C)(C)C)cc2)cs1`, the 90% effect concentration (IC90) is 6.76 µM. Also, the IC50 (HEPG2TOX_HILL_SLOPE 1.77, HEPG2TOX_R_SQUARED 0.966, PBLUC_HILL_SLOPE 4.32, PBLUC_R_SQUARED 0.361, read-out: LUCIFERASE INFECTION ASSAY - IC50) is 4.06 µM.
Consider `O=C(OCc1cn2cc(Cl)ccc2n1)c1cc([N+](=O)[O-])ccc1N1CCCC1`, for which the concentration for an effect of 90% (IC90) turned out to be 1.23 µM. Moreover, the IC50 (HEPG2TOX_HILL_SLOPE 1.77, HEPG2TOX_R_SQUARED 0.925, PBLUC_HILL_SLOPE 9.51, PBLUC_R_SQUARED 0.622, read-out: LUCIFERASE INFECTION ASSAY - IC50) worked out at 0.976 µM.
With `Clc1cnc(N/N=C/c2sc(N3CCCCC3)nc2-c2cccs2)c(Cl)c1`, the IC90 was 9.96 µM. Also, the IC50 (HEPG2TOX_HILL_SLOPE 1.78, HEPG2TOX_R_SQUARED 0.499, PBLUC_HILL_SLOPE 5.62, PBLUC_R_SQUARED 0.563, read-out: LUCIFERASE INFECTION ASSAY - IC50) amounted to 6.74 µM.
On to `COc1ccc(-c2nonc2NC(=O)c2oc3ccc(F)cc3c2C)cc1`, for which the IC90 came out at 1.27 µM. Further, the half-maximal inhibitory concentration (IC50) (HEPG2TOX_HILL_SLOPE 1.77, HEPG2TOX_R_SQUARED 0.888, PBLUC_HILL_SLOPE 11.3, PBLUC_R_SQUARED 0.0148, read-out: LUCIFERASE INFECTION ASSAY - IC50) is 1.05 µM.
With `O=C(c1c[nH]c(-c2ccccn2)c1)c1cc(Cl)ccc1O`, the IC90 was above 10 µM. The IC50 (HEPG2TOX_HILL_SLOPE 1.74, HEPG2TOX_R_SQUARED 0.992, PBLUC_HILL_SLOPE 2.29, PBLUC_R_SQUARED 0.459, read-out: LUCIFERASE INFECTION ASSAY - IC50) was found to be 5.42 µM.
`CCCCc1[nH]nc2ccnc(-c3ccc(CO)cc3)c12`: the concentration for an effect of 90% (IC90) is above 10 µM. Also, the half-maximal inhibitory concentration (IC50) (HEPG2TOX_HILL_SLOPE 1.75, HEPG2TOX_R_SQUARED 0.977, read-out: LUCIFERASE INFECTION ASSAY - IC50) is above 10 µM.
For the compound `CCS(=O)(=O)N1CCC(C(=O)Nc2nnc(-c3ccc(Cl)cc3)o2)(c2ccccc2)CC1`, the IC90 came to 1.21 µM. Besides, where the note is “HEPG2TOX_HILL_SLOPE 1.78, 1.25, HEPG2TOX_R_SQUARED 0.428, 0.956, PBLUC_HILL_SLOPE 18.9, PBLUC_R_SQUARED 0.689, read-out: LUCIFERASE INFECTION ASSAY - IC50”, the half-inhibitory concentration (IC50) amounted to 1.07 µM.
Take `O=S(=O)(Nc1ccc(C(F)(F)F)cc1Cl)c1cc(C(F)(F)F)ccc1OCC(F)(F)F`: the IC90 worked out at 3.28 µM. Further, under “HEPG2TOX_HILL_SLOPE 1.76, HEPG2TOX_R_SQUARED 0.989, PBLUC_HILL_SLOPE 2.99, PBLUC_R_SQUARED 0.37, read-out: LUCIFERASE INFECTION ASSAY - IC50”, the IC50 worked out at 1.57 µM.
For `CCn1c(-c2ccccc2)c(C(=O)COC(=O)/C=C/c2ccco2)c2ccccc21`, the 90% effect concentration (IC90) is above 10 µM. In addition, the half-maximal inhibitory concentration (IC50) (HEPG2TOX_HILL_SLOPE 1.75, HEPG2TOX_R_SQUARED 0.877, PBLUC_HILL_SLOPE 15.9, PBLUC_R_SQUARED 0.384, read-out: LUCIFERASE INFECTION ASSAY - IC50) is 9.6 µM.
Turning to `COc1ccc(-c2nc(C(=O)N3c4ccccc4CC3C)cs2)cc1OC` (stereo unspecified), the concentration for an effect of 90% (IC90) was above 10 µM. In addition, where the note is “HEPG2TOX_HILL_SLOPE 1.77, HEPG2TOX_R_SQUARED 0.837, PBLUC_HILL_SLOPE 1.16, PBLUC_R_SQUARED 0.492, read-out: LUCIFERASE INFECTION ASSAY - IC50”, the IC50 worked out at 1.9 µM.
On to `CC(C)c1noc(CN2CCN(c3ncnc4sc(-c5ccccc5)cc34)CC2)n1`, for which the IC90 was found to be 6.72 µM. Also, the IC50 (HEPG2TOX_HILL_SLOPE 1.77, HEPG2TOX_R_SQUARED 0.986, PBLUC_HILL_SLOPE 2.11, PBLUC_R_SQUARED 0.835, read-out: LUCIFERASE INFECTION ASSAY - IC50) worked out at 2.37 µM.
Regarding `O=C(/C=C/c1cccnc1)c1ccc(S(=O)(=O)N2CCCC2)cc1`, the 90% effect concentration (IC90) stood at 7.23 µM. Further, under “HEPG2TOX_HILL_SLOPE 1.78, HEPG2TOX_R_SQUARED 0.606, PBLUC_HILL_SLOPE 4.03, PBLUC_R_SQUARED 0.736, read-out: LUCIFERASE INFECTION ASSAY - IC50”, the IC50 turned out to be 4.19 µM.
Regarding `CN(C)c1cccc(-c2ccc3nnc(-c4ccc5c(c4)OCO5)n3c2)c1`, the concentration for an effect of 90% (IC90) was found to be 5.11 µM. In addition, for the setting “HEPG2TOX_HILL_SLOPE 1.77, HEPG2TOX_R_SQUARED 0.976, PBLUC_HILL_SLOPE 2.39, PBLUC_R_SQUARED 0.666, read-out: LUCIFERASE INFECTION ASSAY - IC50”, the IC50 was determined as 2.04 µM.
In the case of `Cc1cc(=O)n2ncnc2n1CC(O)COc1ccc(Oc2ccccc2)cc1` (stereo unspecified), the IC90 was determined as 8.2 µM. Besides, the IC50 (HEPG2TOX_HILL_SLOPE 1.76, HEPG2TOX_R_SQUARED 0.892, PBLUC_HILL_SLOPE 2.97, PBLUC_R_SQUARED 0.356, read-out: LUCIFERASE INFECTION ASSAY - IC50) worked out at 3.91 µM.
`Cn1c(-c2ccccc2)c(C(=O)CSc2nnc(-c3cccs3)[nH]2)c2ccccc21`: the IC90 turned out to be 7.84 µM. In addition, the half-maximal inhibitory concentration (IC50) (HEPG2TOX_HILL_SLOPE 1.76, HEPG2TOX_R_SQUARED 0.96, PBLUC_HILL_SLOPE 1.67, PBLUC_R_SQUARED 0.727, read-out: LUCIFERASE INFECTION ASSAY - IC50) is 2.1 µM.
On to `CC(C)NC(=O)c1csc(C(O)c2ccc(C(C)(C)C)cc2)n1` (stereo unspecified), for which the IC90 worked out at 8.8 µM. Besides, the IC50 (HEPG2TOX_HILL_SLOPE 1.76, HEPG2TOX_R_SQUARED 0.8, PBLUC_HILL_SLOPE 2.52, PBLUC_R_SQUARED 0.456, read-out: LUCIFERASE INFECTION ASSAY - IC50) was determined as 3.68 µM.
For the compound `O=c1nc(-c2ccccn2)[nH]c2scc(-c3ccccc3)c12`, the concentration for an effect of 90% (IC90) amounted to 2.25 µM. Moreover, under “HEPG2TOX_HILL_SLOPE 1.76, HEPG2TOX_R_SQUARED 0.7, PBLUC_HILL_SLOPE 112, PBLUC_R_SQUARED 0.058, read-out: LUCIFERASE INFECTION ASSAY - IC50”, the IC50 came out at 2.21 µM.
On to `COc1ccc(N/N=C(\C=N\O)C(=O)c2ccccc2)cc1`, for which the IC90 is 5.58 µM. Also, the IC50 (HEPG2TOX_HILL_SLOPE 1.74, HEPG2TOX_R_SQUARED 0.984, PBLUC_HILL_SLOPE 2.38, PBLUC_R_SQUARED 0.768, read-out: LUCIFERASE INFECTION ASSAY - IC50) was 2.22 µM.
`Cc1ccsc1C(=O)Nc1nc2cc3c(cc2s1)OCCO3`: the IC90 was above 10 µM. Moreover, the half-inhibitory concentration (IC50) (HEPG2TOX_HILL_SLOPE 1.74, HEPG2TOX_R_SQUARED 0.923, PBLUC_HILL_SLOPE 0.323, PBLUC_R_SQUARED 0.422, read-out: LUCIFERASE INFECTION ASSAY - IC50) amounted to 0.658 µM.
